Experimental data taken from patent publication EP0229313A2, “Compound related to antibiotic TAN-749 and their production” (priority 1985, dated 1987).
≈ marks a conversion by molar mass, not a printed value. Like-named read-outs stand apart in the source and are kept apart here.

Key:
[1] = test system: Staphylococcus aureus 1840 S; assay: MIC against clinically isolated Staphylococcus aureus strains (Table 5); format: cell-based; details: strain 1840 S, resistance type None, agar dilution method, Mueller Hinton medium, inoculum 10^6CFU/mℓ, read-out: Minimal Inhibitory Concentration
[2] = test system: Staphylococcus aureus 308A-1; assay: Therapeutic effects on infectious diseases in mice (Table 6); format: in vivo; details: 308A1, po, mice infected with Staphylococcus aureus 308A-1, dihydrochlorides
[3] = test system: Staphylococcus aureus TN 2688; assay: MIC against clinically isolated Staphylococcus aureus strains (Table 5); format: cell-based; details: TN2688, strain TN 2688, resistance type Macrolide, agar dilution method, Mueller Hinton medium, inoculum 10^6CFU/mℓ, read-out: Minimal Inhibitory Concentration
[4] = test system: Staphylococcus aureus TN 2687; assay: as above; format: cell-based; details: TN2687, strain TN 2687, resistance type Macrolide, agar dilution method, Mueller Hinton medium, inoculum 10^6CFU/mℓ, read-out: Minimal Inhibitory Concentration
[5] = test system: Staphylococcus aureus TN 2648; assay: as above; format: cell-based; details: TN2648, strain TN 2648, resistance type Methicillin, agar dilution method, Mueller Hinton medium, inoculum 10^6CFU/mℓ, read-out: Minimal Inhibitory Concentration
[6] = test system: Staphylococcus aureus 1840-2; assay: as above; format: cell-based; details: 18402, strain 1840-2, resistance type Penicillin G, agar dilution method, Mueller Hinton medium, inoculum 10^6CFU/mℓ, read-out: Minimal Inhibitory Concentration
[7] = test system: Staphylococcus aureus TN 2613; assay: as above; format: cell-based; details: TN2613, strain TN 2613, resistance type Methicillin, agar dilution method, Mueller Hinton medium, inoculum 10^6CFU/mℓ, read-out: Minimal Inhibitory Concentration
Escherichia coli 0-111 = assay: Therapeutic effects on infectious diseases in mice (Table 6); format: in vivo; details: mice infected with Escherichia coli 0-111, route Subcutaneous, dihydrochlorides
Escherichia coli T7 [8] = assay: Antibacterial spectrum, MIC by agar dilution method (Table 4); format: cell-based; details: inoculum 10^8 CFU/mℓ, dihydrochlorides
From the text: (§1) Tables 3 and 4 show the antibacterial spectra of TAN-749A, B, C, and D (dihydrochlorides) against various microbes.

[9] = test system: Pseudomonas aeruginosa P9; assay: as above; format: cell-based; details: medium B-TSA (10% horse serum/TSA), inoculum 10^8 CFU/mℓ, dihydrochlorides, read-out: Minimal Inhibitory Concentration
From the text: as §1

[10] = test system: Staphylococcus aureus TN 2684; assay: MIC against clinically isolated Staphylococcus aureus strains (Table 5); format: cell-based; details: TN2684, strain TN 2684, resistance type Macrolide, agar dilution method, Mueller Hinton medium, inoculum 10^6CFU/mℓ, read-out: Minimal Inhibitory Concentration
[11] = Acute toxicities on mice (Table 7); details: mouse, in vivo, dihydrochlorides
Escherichia coli T7 [12] = assay: Therapeutic effects on infectious diseases in mice (Table 6); format: in vivo; details: sc; mice infected with Escherichia coli T7; route Subcutaneous; dihydrochlorides
[13] = test system: Pseudomonas aeruginosa P-9; assay: as above; format: in vivo; details: P9, sc; mice infected with Pseudomonas aeruginosa P-9; route Subcutaneous; dihydrochlorides
[14] = test system: Citrobacter freundii IFO 12681; assay: Antibacterial spectrum, MIC on agar (Table 3); format: cell-based; details: Bacto-Antibiotic Medium 3 + yeast extract + agar, inoculum approx. 10^6 CFU/mℓ, dihydrochlorides
From the text: as §1

[15] = test system: Klebsiella pneumoniae IFO 3317; assay: Antibacterial spectrum, MIC on agar (Table 3); format: cell-based; details: IFO3317, Bacto-Antibiotic Medium 3 + yeast extract + agar, inoculum approx. 10^6 CFU/mℓ, dihydrochlorides, read-out: Minimal Inhibitory Concentration
From the text: as §1

[16] = test system: Proteus morganii IFO 3168; assay: Antibacterial spectrum, MIC on agar (Table 3); format: cell-based; details: Morganella morganii, IFO3168, Bacto-Antibiotic Medium 3 + yeast extract + agar, inoculum approx. 10^6 CFU/mℓ, dihydrochlorides, read-out: Minimal Inhibitory Concentration
From the text: as §1

[17] = test system: Proteus vulgaris IFO 3988; assay: Antibacterial spectrum, MIC on agar (Table 3); format: cell-based; details: IFO3988, Bacto-Antibiotic Medium 3 + yeast extract + agar, inoculum approx. 10^6 CFU/mℓ, dihydrochlorides, read-out: Minimal Inhibitory Concentration
From the text: as §1

[18] = test system: Staphylococcus aureus FDA 209P; assay: Antibacterial spectrum, MIC on agar (Table 3); format: cell-based; details: Bacto-Antibiotic Medium 3 + yeast extract + agar, inoculum approx. 10^6 CFU/mℓ, dihydrochlorides
From the text: as §1

[19] = test system: Pseudomonas aeruginosa IFO 3080; assay: Antibacterial spectrum, MIC on agar (Table 3); format: cell-based; details: Bacto-Antibiotic Medium 3 + yeast extract + agar, inoculum approx. 10^6 CFU/mℓ, dihydrochlorides
From the text: as §1

[20] = test system: Escherichia coli NIHJ JC2; assay: Antibacterial spectrum, MIC on agar (Table 3); format: cell-based; details: NIHJJC2, Bacto-Antibiotic Medium 3 + yeast extract + agar, inoculum approx. 10^6 CFU/mℓ, dihydrochlorides, read-out: Minimal Inhibitory Concentration
From the text: as §1

[21] = test system: Staphylococcus aureus 308A-1; assay: Antibacterial spectrum, MIC by agar dilution method (Table 4); format: cell-based; details: medium TSA, inoculum 10^8 CFU/mℓ, dihydrochlorides, listed as C
From the text: as §1

[22] = test system: Staphylococcus aureus FDA209P; assay: as above; format: cell-based; details: medium B-TSA (10% horse serum/TSA), inoculum 10^8 CFU/mℓ, dihydrochlorides, listed as C
From the text: as §1

[23] = test system: Streptococcus pyogenes E-14; assay: as above; format: cell-based; details: medium B-TSA (10% horse serum/TSA), inoculum 10^8 CFU/mℓ, dihydrochlorides, listed as C
From the text: as §1

[24] = test system: Acinetobacter calcoaceticus IFO 13006; assay: Antibacterial spectrum, MIC on agar (Table 3); format: cell-based; details: Bacto-Antibiotic Medium 3 + yeast extract + agar, inoculum approx. 10^6 CFU/mℓ, dihydrochlorides, listed as C
From the text: as §1

Compound: CC=CC=CC(=O)NCC(O)CC(N)CC(=O)NCCC(=N)N (stereo not shown) [TAN-749A]
- MIC [1]: 12.5 µg/mL (≈ 38.4 µM)
- ED50 [2]: 17.7 mg/kg
- MIC [3]: 6.25 µg/mL (≈ 19.2 µM)
- MIC [4]: 6.25 µg/mL (≈ 19.2 µM)
- MIC [5]: 3.13 µg/mL (≈ 9.62 µM)
- MIC [6]: 12.5 µg/mL (≈ 38.4 µM)
- MIC [7]: 6.25 µg/mL (≈ 19.2 µM)
- ED50 (Escherichia coli 0-111; Escherichia coli, 0111, sc, read-out: ED50): 67.2 mg/kg
- MIC (Escherichia coli T7 [8]; Escherichia coli, T7, Escherichia coli T7, medium TSA, read-out: Minimal Inhibitory Concentration): 50 µg/mL (≈ 154 µM)
- MIC [9]: 100 µg/mL (≈ 307 µM)
- MIC [10]: 6.25 µg/mL (≈ 19.2 µM)
- LD50 ([11]; route Oral): 2000 to 4000 mg/kg
- LD50 ([11]; sc, route Subcutaneous): ~500 mg/kg
- ED50 (Escherichia coli T7 [12]): 50.8 mg/kg
- ED50 [13]: 31 mg/kg
- MIC ([14]; Citrobacter freundii, IFO12681, Citrobacter freundii IFO 12681, read-out: Minimal Inhibitory Concentration): ≥ 100 µg/mL
- MIC [15]: > 100 µg/mL
- MIC [16]: > 100 µg/mL
- MIC [17]: 100 µg/mL
- MIC ([18]; Staphylococcus aureus, FDA209P, read-out: Minimal Inhibitory Concentration): 50 µg/mL
- MIC ([19]; Pseudomonas aeruginosa, IFO3080, Pseudomonas aeruginosa IFO 3080, read-out: Minimal Inhibitory Concentration): 25 µg/mL
- MIC [20]: > 100 µg/mL

Compound: CC=CC=CC(=O)NCC(O)CC(N)CC(=O)NCCC(=N)N (stereo not shown) [TAN-749C]
- ED50 (Escherichia coli 0-111; listed as C): 50 mg/kg
- Minimal Inhibitory Concentration [21]: >100 µg/mL
- Minimal Inhibitory Concentration [22]: >100 µg/mL
- Minimal Inhibitory Concentration (Escherichia coli T7 [8]; Escherichia coli T7, medium TSA, listed as C): >100 µg/mL
- Minimal Inhibitory Concentration [23]: 100 µg/mL
- Minimal Inhibitory Concentration ([14]; Citrobacter freundii IFO 12681, listed as C): >100 µg/mL
- Minimal Inhibitory Concentration [24]: >100 µg/mL
- Minimal Inhibitory Concentration ([18]; listed as C): >100 µg/mL
- Minimal Inhibitory Concentration ([19]; Pseudomonas aeruginosa IFO 3080, listed as C): 50 µg/mL
